This passage reports clearance and Activity results from ChEMBL document CHEMBL5247626, “In vitro and in vivo biological evaluation of newly synthesized multi-target 20(R)-panaxadiol derivatives for treating Alzheimer's disease” (Eur J Med Chem, 2022).

A short description of series [1]: Clearance in Sprague-Dawley rat at 10 mg/kg,iv measured at 0.083 to 24 hrs post administration by LC-MS/MS analysis. Type of series: ADME, organism-based. To be noted: in vivo, time 0.083-24 hrs.
Series [2] deals with Mus musculus. Put plainly: Antialzheimer activity against amyloid beta (25 to 35)-induced brain injury ICR mouse model assessed as increase in NeuN expression level in cerebral cortex at 50 mg/kg,po administrated for 21 days by immunohistochemistry analysis. Type of series: functional, organism-based. The conditions noted are these: time 21.0 day.
Series [3] concerns Mus musculus. As to the kind of experiment: Antialzheimer activity against amyloid beta (25 to 35)-induced cognitive deficit ICR mouse model assessed as effect on total number of arm enteries at 12.5 to 50 mg/kg,po observed after 11 days of administration by Y maze test. Type of series: functional, organism-based. The conditions noted are these: dose 12.5-50 mg/kg, time 11.0 day.

Series [4] can be described thus: Toxicity in ICR mouse assessed as pathological changes in spleen at 12.5 to 50 mg/kg,po administrated for 20 days by hematoxylin and eosin staining based microscopic analysis. Type of series: organism-based. The conditions noted are these: in vivo, 480 h, dose 12.5-50 mg/kg, time 20 day.
Series [5] relates to Mus musculus. As to the kind of experiment: Antialzheimer activity against amyloid beta (25 to 35)-induced cognitive deficit ICR mouse model assessed as increase in discrimination index at 50 mg/kg,po observed after 24 hrs of administration by novel object recognition test. Type of series: functional, organism-based.

Molecules are shown by their SMILES. Active and inactive are the calls of the source. The rule behind the calls is not given here.

Take `CC1(C)CCC[C@](C)([C@H]2CC[C@]3(C)[C@@H]2[C@H](O)C[C@@H]2[C@@]4(C)CC[C@H](OC(=O)NCc5ccccc5)C(C)(C)[C@@H]4CC[C@]23C)O1`: in series [1], the clearance worked out at 4.29 mL/min/kg. Moreover, the outcome in series [2] and in series [5] was Active. In addition, in series [3], the result was inactive. For the same molecule, in series [4], the Activity entry was “Non-Toxic”.
